Experiments:
Puccinia recondita [1] = assay: Efficacy test against wheat brown rust, 1 mg/L (Experimental Example 10); assay type: in vivo; conditions: 1 g/ha (1 mg/L sprayed at 1,000 L/ha)
Septoria tritici [2] = assay: Assay for fungicidal effect on Septoria tritici, plate medium 1.25 mg/L (Experimental Example 9); assay type: cell-based
Method: Each inventive compound was dissolved in 2 ml of dimethyl sulfoxide. 0.6 ml of this solution was added to 60 nil of a PDA medium (potato dextrose agar medium) at about 60 degrees C., which was mixed thoroughly in a 100-ml conical flask, and poured into a dish, where it was solidified, thereby obtaining a plate medium containing the inventive compound at 50 mg/L and 5 mg/L. On the other hand, a subject microorganism previously cultured on a plate medium was cut out using a cork borer whose diameter was 4 mm, and inoculated to the test compound-containing plate medium described above. […] The growth degree of the microorganism on the test compound-containing plate medium thus observed was compared with the growth degree of the microorganism in the untreated group, and % mycelial growth inhibition was calculated by the following equation. R=100(dc−dt)/dc wherein R=% mycelial extension inhibition, dc=flora diameter in untreated plate, dt=flora diameter in treated plate. The results obtained as described above were evaluated as one of the 5 grades according to the following criteria. […] In this Experimental Example, the fungicidal effects of the inventive compounds on Septoria tritici were examined by the methods described in the Experimental Example 5. In this Experimental Example, the inventive compounds were diluted at 1.25 mg/L.

Septoria tritici [3] = assay: Microplate test of biocidal effect on wheat Septoria blotch (Experimental Example 4); assay type: cell-based; conditions: Zymoseptoria tritici, 240 h; % mycelium growth inhibition, absorbance 550 nm, 20 degrees C. for about 10 days; read-out: activity level (EC80)
Method: A spore suspension of wheat Septoria blotch (Septoria tritici) (spore concentration: 1×10^6 cells/ml) was prepared, and subjected to 100-fold dilution with a PD medium. A flat 96-well microplate was provided and 1 microliter of the test compound solution formed by dissolution in dimethyl sulfoxide (DMSO) at a concentration 100 times the test concentration was dispensed to the microplate, and then 100 microliter of the medium containing the spore was added and stirred thoroughly. […] R=100×(dc−dt)/dc: R: % mycelium growth inhibition dc: Absorbance of non-treatment zone dt: Absorbance of treatment zone

Aureobasidium sp. = assay: Plate medium assay, industrial material deteriorating microorganism, Aureobasidium (Experimental Example 5); assay type: cell-based; conditions: treatment at 50 mg/l, PDA plate medium, read-out: growth inhibition grade
Method: (§1) In this Experimental Example, the fungicidal effects of the inventive compounds on various phytopathogenic fungi for plants and hazardous microorganism for industrial materials were examined by the methods described below. Each inventive compound was dissolved in 2 ml of dimethyl sulfoxide. 0.6 ml of this solution was added to 60 nil of a PDA medium (potato dextrose agar medium) at about 60 degrees C., which was mixed thoroughly in a 100-ml conical flask, and poured into a dish, where it was solidified, thereby obtaining a plate medium containing the inventive compound at 50 mg/L and 5 mg/L. On the other hand, a subject microorganism previously cultured on a plate medium was cut out using a cork borer whose diameter was 4 mm, and inoculated to the test compound-containing plate medium described above. […] The growth degree of the microorganism on the test compound-containing plate medium thus observed was compared with the growth degree of the microorganism in the untreated group, and % mycelial growth inhibition was calculated by the following equation. R=100(dc-dt)/dc wherein R=% mycelial extension inhibition, dc=flora diameter in untreated plate, dt=flora diameter in treated plate. The results obtained as described above were evaluated as one of the 5 grades according to the following criteria.

Tyromyces palustris = assay: Plate medium assay, wood denaturing microorganism Oouzuratake (Experimental Example 5); assay type: cell-based; conditions: treatment at 50 mg/l, PDA plate medium; read-out: growth inhibition grade
Method: as §1

Coriolus versicolor = assay: Plate medium assay, wood denaturing microorganism Kawaratake (Experimental Example 5); assay type: cell-based; conditions: Trametes versicolor; treatment at 50 mg/l, PDA plate medium; read-out: growth inhibition grade
Method: as §1

Mucor sp. = assay: Plate medium assay, industrial material deteriorating microorganism, Mucor (Experimental Example 5); assay type: cell-based; conditions: treatment at 50 mg/l, PDA plate medium, read-out: growth inhibition grade
Method: as §1

Aspergillus sp. = assay: Plate medium assay, industrial material deteriorating microorganism, Aspergillus (Experimental Example 5); assay type: cell-based; conditions: treatment at 50 mg/l, PDA plate medium, read-out: growth inhibition grade
Method: as §1

Puccinia recondita [4] = assay: Efficacy test against wheat brown rust, 100 mg/L and 10 mg/L (Experimental Example 2); assay type: in vivo; conditions: nine to 14 days after inoculation; for pest or weed control at 100 µg/mL: Puccinia recondita, 336 h, 100 mg/L sprayed at 1,000 L/ha, read-out: Protective value; for efficacy compared with compound (1): 10 mg/L sprayed at 1,000 L/ha
Method: Onto a wheat plant (variety: NORIN No. 61) grown to the two-leaf phase using a square plastic pot (6 cm×6 cm), a wettable formulation such as Formulation Example 1 which was diluted and suspended in water at a certain concentration (100 mg/L and 10 mg/L) was sprayed at a rate of 1,000 L/ha. The sprayed leaves were air-dried, and inoculated with spore suspension of Puccinia recondita (adjusted at 200 spores/vision, […] was added at 60 ppm) by spraying, and kept at 25 degrees C. and a high humidity for 48 hours. Thereafter, the plant was kept in a greenhouse. Nine to 14 days after inoculation, the wheat brown rust lesion degree was investigated, and the protective value was calculated by the following equation. Protective value (%)=(1-lesion degree in sprayed plot/lesion degree in unsprayed plot)×100

Curvularia sp. = assay: Plate medium assay, industrial material deteriorating microorganism, Curvularia (Experimental Example 5); assay type: cell-based; conditions: treatment at 50 mg/l, PDA plate medium, read-out: growth inhibition grade
Method: as §1

Botrytis cinerea = assay: Efficacy test against cucumber gray mold (Experimental Example 1); assay type: in vivo; conditions: 96 h, four days after inoculation, read-out: Protective value; for pest or weed control at 50 µg/mL: 50 mg/L sprayed at 1,000 L/ha; for pest or weed control at 100 µg/mL: 100 mg/L sprayed at 1,000 L/ha
Method: Onto a cucumber (variety:SHARP1) plant in its cotyledon phase grown using a square plastic pot (6 cm×6 cm), a wettable formulation such as Formulation Example 1 which was diluted and suspended in water at a certain concentrations (100 mg/L and 50 mg/L) was sprayed at a rate of 1,000 L/ha. The sprayed leaves were air-dried, and loaded with a paper disc (8 mm in diameter) soaked in a spore suspension of Botrytis cinerea, and kept at 20 degrees C. and a high humidity. Four days after inoculation, the cucumber gray mold lesion degree was investigated, and the protective value was calculated by the following equation. Protective value (%)=(1−mean lesion degree in sprayed plot/mean lesion degree in unsprayed plot)×100

SMILES	lesion degree (Puccinia recondita [1])	growth inhibition grade (Septoria tritici [2])	EC80 (Septoria tritici [3]) [µg/mL]	inhibition at 50 µg/mL (Aureobasidium sp.) [%]	inhibition at 50 µg/mL (Tyromyces palustris) [%]	inhibition at 50 µg/mL (Coriolus versicolor) [%]	inhibition at 50 µg/mL (Mucor sp.) [%]	inhibition at 50 µg/mL (Aspergillus sp.) [%]	pest or weed control at 100 µg/mL (Puccinia recondita [4]) [%]	inhibition at 50 µg/mL (Curvularia sp.) [%]	pest or weed control at 50 µg/mL (Botrytis cinerea) [%]	pest or weed control at 100 µg/mL (Botrytis cinerea) [%]	efficacy compared with compound (1) (Puccinia recondita [4])
CC1(C)CCC(Cc2ccc(Cl)cc2)C1(O)Cn1ncnc1S (racemic) [compound (2)]	5 (50% or higher)	1 (% Mycerial growth inhibition of less than 20%)											
C[C@]1(CCl)CC[C@@H](Cc2ccc(Cl)cc2)[C@]1(O)Cn1ccnc1 (racemic) [Compound I-244, (1RS,2SR,5SR)-5-(4-chlorobenzyl)-2-chloromethyl-2-methyl-1-imidazol-1-ylmethylcyclopentanol]			≤ 0.2	60 to 80	60 to 80	60 to 80	60 to 80	60 to 80	≥ 90	60 to 80			
C[C@]1(CBr)CC[C@@H](Cc2ccccc2)[C@]1(O)Cn1cncn1 (racemic) [Compound I-602, (1RS,2SR,5SR)-2-bromomethyl-5-benzyl-2-methyl-1-(1H-1,2,4-triazol-1-ylmethyl)cyclopentanol]			≤ 0.2	60 to 80	60 to 80	60 to 80	60 to 80	60 to 80	≥ 90	60 to 80	≥ 80	≥ 80	higher efficacy than that of compound (1)
C[C@]1(CCl)CC[C@H](Cc2ccc(Cl)cc2)[C@]1(O)Cn1cncn1 (racemic) [Compound I-301, (1RS,2SR,5RS)-5-(4-chlorobenzyl)-2-chloromethyl-2-methyl-1-[1,2,4]triazol-1-ylmethylcyclopentanol]			≤ 0.2	60 to 80	60 to 80	60 to 80	60 to 80	60 to 80	≥ 90	60 to 80			
C[C@]1(CCl)CC[C@@H](Cc2cccc(Cl)c2)[C@]1(O)Cn1cncn1 (racemic) [Compound I-74, (1RS,2SR,5SR)-5-(3-chlorobenzyl)-2-chloromethyl-2-methyl-1-(1H-1,2,4-triazol-1-ylmethyl)cyclopentanol]			≤ 0.2	60 to 80	60 to 80	60 to 80	60 to 80	60 to 80	≥ 90	60 to 80	≥ 80	≥ 80	higher efficacy than that of compound (1)
C[C@]1(CBr)CC[C@@H](Cc2ccc(F)cc2)[C@]1(O)Cn1cncn1 (racemic) [Compound I-601, (1RS,2SR,5SR)-2-bromomethyl-5-(4-fluorobenzyl)-2-methyl-1-(1H-1,2,4-triazol-1-ylmethyl)cyclopentanol]			≤ 0.2	60 to 80	60 to 80	60 to 80	60 to 80	60 to 80	≥ 90	60 to 80	≥ 80	≥ 80	higher efficacy than that of compound (1)
C[C@]1(CBr)CC[C@@H](Cc2ccc(Cl)cc2)[C@]1(O)Cn1cncn1 (racemic) [Compound I-25, (1RS,2SR,5SR)-2-bromomethyl-5-(4-chlorobenzyl)-2-methyl-1-(1H-1,2,4-triazol-1-ylmethyl)cyclopentanol]			≤ 0.2	60 to 80	60 to 80	60 to 80	60 to 80	60 to 80	≥ 90	60 to 80		≥ 80	higher efficacy than that of compound (1)
C[C@]1(CCl)CC[C@@H](Cc2ccc(F)cc2F)[C@]1(O)Cn1cncn1 (relative stereo) [Compound I-88]	0.5 (Less than 1%)	5 (% Mycerial growth inhibition of 80% or higher)											higher efficacy than that of compound (1)
CC[C@]1(CCl)CC[C@@H](Cc2ccc(Cl)cc2)[C@]1(O)Cn1cncn1 (racemic) [Compound I-36, (1RS,2SR,5SR)-5-(4-chlorobenzyl)-2-chloromethyl-2-ethyl-1-(1H-1,2,4-triazol-1-ylmethyl)cyclopentanol]			≤ 0.2	60 to 80	60 to 80	60 to 80	60 to 80	60 to 80	≥ 90	60 to 80			higher efficacy than that of compound (1)
CC(Cl)=C[C@@]1(C)CC[C@@H](Cc2ccc(Cl)cc2)[C@]1(O)Cn1cncn1 (racemic) [Compound I-15, (1RS,2RS,5SR)-5-(4-chlorobenzyl)-2-(2-chloropropenyl)-2-methyl-1-(1H-1,2,4-triazol-1-ylmethyl)cyclopentanol]			≤ 0.2	60 to 80	60 to 80	60 to 80	60 to 80	60 to 80	≥ 90	60 to 80	≥ 80	≥ 80	higher efficacy than that of compound (1)
C[C@@]1(CCCl)CC[C@@H](Cc2ccc(Cl)cc2)[C@]1(O)Cn1cncn1 (racemic) [Compound I-104, (1RS,2SR,5SR)-5-(4-chlorobenzyl)-2-(2-chloroethyl)-2-methyl-1-(1H-1,2,4-triazol-1-ylmethyl)cyclopentanol]			≤ 0.2	60 to 80	60 to 80	60 to 80	60 to 80	60 to 80	≥ 90	60 to 80	≥ 80	≥ 80	higher efficacy than that of compound (1)

Reference: patent US9145351B2, “Azole derivatives, methods for producing the same, intermediate thereof, agro-horticultural agents” (KUREHA CORPORATION, priority 2009, dated 2015)
